Patent publication US10538443B2, “Method of degradation and inactivation of antibiotics in water by immobilized enzymes onto functionalized supports” (Luxembourg Institute of Science and Technology (LIST), priority 2014, dated 2020)
Positions of bridges follow the written chain, without caps; N, C: chain ends. Non-standard residues stand in square brackets, D forms with d. Residues, ends and D or L forms follow the SMILES beside them. *: point of attachment. Ileψ(thiazoline)Cys = CC[C@H](C)[C@H](N)C1=N[C@H](C(=O)*)CS1; dOrn = NCCC[C@@H](N)C(=O)O

Key:
NDM-1 = target: T1, NDM-1 (Klebsiella pneumoniae, UniProt C7C422); format: biochemical, K. pneumoniae; conditions: free NDM-1 300 μg·ml^−1, antibiotic 100 μg·ml^−1, final volume 1 mL, deionized water, HEPES 12.5 mM, room temperature, 100 rpm
T1 construct: His tag (inferred from the HisTrap FF purification and the pOPINF vector; no tag is printed as such); made in house; host or cells: Escherichia coli BL21 2D3
Procedure: The production of protein performed as described by Green V. L. et al. (Acta Crystallogr. 2011, F67, 1160-1164) with few modifications: An additional step of freezing is added before cell lysis with French press. The NDM-1 isolation and purification are only performed with HisTrap FF column (GE Healthcare). Three washes in Amicon® Ultra-4 Centrifugal Filter Units 3,000 NMWL (1000×g for 15 min) allow to remove excess imidazole. Enzymes are then re-suspended in PBS.
(§1) Degradation experiments have been performed, using a concentration of free NDM-1 enzyme of 300 μg·ml^−1 in an aqueous medium comprising deionized water and HEPES 12.5 mM. Antibiotic is added at final concentration of 100 μg·ml^−1 (final volume: 1 mL). Degradation assay are performed under agitation of 100 rpm at room temperature during 1 hour. UV absorbance measurements are achieved to determine the evolution of the concentration of the antibiotics in the medium.

[1] = Autolysis of antibiotic after 1 hour; format: physicochemical; conditions: antibiotic 100 μg·ml^−1, deionized water, HEPES 12.5 mM, room temperature
Procedure: as §1

[2] = test system: Selenastrum capricornutum; experiment: Acute toxicity test on microalgae (ISO 8692: 2012), growth inhibition; format: cell-based; conditions: 90 μg·mL^−1
Procedure: (§2) For this, the tests were carried out on the degradation media before (T0) and after metabolization by enzymes immobilized on PGMA and DOPA functionalized Kaldnes after 30 min, 1 h and 24 h of contact.
(§3) The tests are performed with the maximum volume of test solution that can be provided and defined by the standards cited earlier. The results are expressed as a percentage of growth inhibition for algae and Daphnia test, as percentage of light emission inhibition for the Microtox test and as percentage of cell viability inhibition for cytotoxicity tests.

Daphnia magna Straus = experiment: Daphnia acute toxicity test (ISO 6341: 2012); format: in vivo; conditions: amoxicillin 90 μg·mL^−1; T0 (before metabolization by enzymes)
Procedure: as §2, §3

Vibrio fischeri = conditions: 0 min, 80 μg·mL^−1
Procedure: as §2, §3

[3] = test system: rat hepatoma cell line H4IIE.Luc; experiment: Cytotoxicity test, Cell Viability Assay AlamarBlue; format: cell-based; conditions: amoxicillin 80 μg·mL^−1; T0 (before metabolization by enzymes)
Procedure: as §2, §3

[4] = Degradation of amoxicillin (100 μg/ml) in filtered tap water with HEPES by immobilized or free enzyme, UV absorbance every 24 hours; format: biochemical
Procedure: Once the Kaldnes carriers have been activated according to the above protocol, the enzymatic activity is measured. Two antibiotics present in an aqueous medium have been tested.
A sample of tap water, prealably filtered on a syringe filter unit (disposable pore size of 0.22 μm) and with HEPES (12.5 mM), and the antibiotics at a concentration of 100 μg/ml.
For comparison purposes, degradation of the antibiotic with the free enzyme will be tested. The sample of tap water, prealably filtered on a syringe filter unit (disposable pore size of 0.22 μm) and with HEPES (12.5 mM), and the antibiotics at a concentration of 100 μg·ml^−1, is prepared.
UV absorbance measurements are achieved to determine the evolution of the concentration of the antibiotics. […] The absorbance, and the thus the concentration, is determined every 24 hours.

[5] = Storage of the Kaldnes carriers at 4° C., length of preservation of activity; format: physicochemical
Procedure: The biofunctionalized Kaldnes carriers, after being dried, have been kept in the fridge at 4° C. Antibiotics degradation tests were performed onto the carriers to measure the activity.

[6] = Kaldnes biochips, PGMA based layer, Tween 20 (5%), enzyme 1.985 mg
[7] = Kaldnes biochips, dopamine as layer precursor, no Tween 20, enzyme 1.985 mg
[8] = enzyme in its free form 2 mg, no Tween 20

CC[C@H]1OC(=O)[C@H](C)[C@@H](O[C@H]2C[C@@](C)(OC)[C@@H](O)[C@H](C)O2)[C@H](C)[C@@H](O[C@@H]2O[C@H](C)C[C@H](N(C)C)[C@H]2O)[C@](C)(O)C[C@@H](C)C(=O)[C@H](C)[C@@H](O)[C@]1(C)O [erythromycin]
degraded amount after 1 hour (NDM-1): 6.8 ± 2.3 µg
Autolysis of antibiotic after 1 hour [1]: 0 µg/mL

CC1(C)S[C@@H]2[C@H](NC(=O)[C@H](N)c3ccc(O)cc3)C(=O)N2[C@H]1C(=O)O [amoxicillin]
degraded amount after 1 hour (NDM-1): 10 ± 2 µg
Autolysis of antibiotic after 1 hour [1]: 0 µg/mL
Percentage of inhibition, Alga test ([2]; 0 min): 55 ± 6%
Percentage of inhibition, Alga test ([2]; 24 h): 0%
Percentage of inhibition, Daphnia Test (Daphnia magna Straus): 56 ± 4%
Percentage of inhibition, Microtox (Vibrio fischeri): 41 ± 12%
Percentage of inhibition, Cell Viability Assay [3]: 19 ± 5%

CC[C@H]1OC(=O)C[C@@H](O)[C@H](C)[C@@H](O[C@@H]2O[C@H](C)[C@@H](O[C@H]3C[C@@](C)(O)[C@@H](O)[C@H](C)O3)[C@H](N(C)C)[C@H]2O)[C@@H](CC=O)C[C@@H](C)C(=O)/C=C/C(C)=C/[C@@H]1CO[C@@H]1O[C@H](C)[C@@H](O)[C@@H](OC)[C@H]1OC [tylosine]
degraded amount after 1 hour (NDM-1): 7.4 ± 1.1 µg
Autolysis of antibiotic after 1 hour [1]: 0.01 µg/mL

CC[C@H](C)[C@H](N)C1=N[C@H](C(=O)N[C@@H](CC(C)C)C(=O)N[C@H](CCC(=O)O)C(=O)N[C@H](C(=O)N[C@H]2CCCCNC(=O)[C@H](CC(N)=O)NC(=O)[C@@H](CC(=O)O)NC(=O)[C@H](Cc3cnc[nH]3)NC(=O)[C@@H](Cc3ccccc3)NC(=O)[C@H]([C@@H](C)CC)NC(=O)[C@@H](CCCN)NC2=O)[C@@H](C)CC)CS1 [bacitracin] ({Ileψ(thiazoline)Cys}-L[dE]IK[dOrn]I[dF]H[dD]N; lactam 4-C)
degraded amount after 1 hour (NDM-1): 5 ± 0.8 µg
Autolysis of antibiotic after 1 hour [1]: 0 µg/mL

COc1cc(Cc2cnc(N)nc2N)cc(OC)c1OC [trimethoprime]
degraded amount after 1 hour (NDM-1): 2.5 ± 0.95 µg
Autolysis of antibiotic after 1 hour [1]: 0.01 µg/mL

CCC[C@@H]1C[C@@H](C(=O)N[C@@H]([C@H]2O[C@H](SC)[C@H](O)[C@@H](O)[C@H]2O)[C@@H](C)O)N(C)C1 [lincomycin]
degraded amount after 1 hour (NDM-1): 5 ± 1.5 µg
Autolysis of antibiotic after 1 hour [1]: 0.01 µg/mL

Cc1cc(NS(=O)(=O)c2ccc(N)cc2)no1 [sulfamethoxazole]
degraded amount after 1 hour (NDM-1): 3.2 ± 0.8 µg
Autolysis of antibiotic after 1 hour [1]: 0 µg/mL

B1: NDM-1: New-Dehli metallo-β-lactamase 1, K. pneumoniae gene produced in E. coli BL21 2D3, used free or immobilized on Kaldnes biochips (protein, UniProt C7C422 29-270, looked up)
Metallo-beta-lactamase type 2: GEIRPTIGQQMETGDQRFGDLVFRQLAPNVWQHTSYLDMPGFGAVASNGLIVRDGGRVLVVDTAWTDDQTAQILNWIKQEINLPVALAVVTHAHQDKMGGMDALHAAGIATYANALSNQLAPQEGMVAAQHSLTFAANGWVEPATAPNFGPLKVFYPGPGHTSDNITVGIDGTDIAFGGCLIKDSKAKSLGNLGDADTEHYAASARAFGAAFPKASMIVMSHSAPDSRAAITHTARMADKLR
Amount of degraded amoxicillin [4, 6]: 3502 ± 191 µg
Duration of activity [4, 6]: 22 days
Amount of degraded amoxicillin [4, 7]: 3021 ± 51 µg
Duration of activity [4, 7]: 10 days
amount of amoxicillin degraded, immobilized versus free form ([4]; Kaldnes carrier, Table V): about 8 times
Amount of degraded amoxicillin [4, 8]: 390 ± 45 µg
Duration of activity [4, 8]: 4 days
Length of preservation ([5]; stored as Kaldnes + PGMA): 1 month
Length of preservation ([5]; stored as Kaldnes + PGMA + enzyme): 2 months
Length of preservation ([5]; stored as Kaldnes + PGMA + enzyme + Tween 20): 2 weeks
Length of preservation ([5]; stored as Kaldnes + dopamine): 3 weeks
Length of preservation ([5]; stored as Kaldnes + dopamine + enzyme): 1 month
Length of preservation ([5]; stored as Kaldnes + dopamine + enzyme + Tween 20): 2 weeks
